The target in experiment [1] is T1, VEGFR-2 tyrosine kinase (His6-VEGFR-2, cytoplasmic domain) (Homo sapiens, UniProt P35968).
T1 construct: made in house; host or cells: Sf9 insect cells (baculovirus, pFastBac-HT)
Put plainly: Inhibitory activity on VEGFR-2 tyrosine kinase (HTRF). To be noted: biotin-poly(GT) substrate. It is filed as biochemical. The text has this:
Cytoplasmic domain of VEGFR-2 (Genbank Accession No. L04947) is a 1.7 kb DNA fragment starting from lysine 791 and contains a stop codon, as described by Tarman et al. (Oncogene, 6(9), 1677-1683, 1991). This DNA fragment was isolated from a human placental cDNA library (obtained from Clontech Laboratories, Inc.) with two primers (obtained from TaKaRa Ex Taq™ Kit, TaKaRa) using a PCR method. This DNA fragment was cloned into a baculovirus transplace vector (pFastBac™-HT (obtained from GIBCO BRL)), to obtain a recombinant construct. An insect cell (Spodoptera frugiperda 9 (Sf9)) was transfected with it, and a VEGFR-2 recombinant baculovirus solution was prepared (preparation of the recombinant baculovirus can be found in a standard textbook (Bac-to-Bac Baculovirus Expression System (GIBCO BRL)).
To Sf9 cells (3×10^8 cells) suspended in a SF-90011 culture medium containing 2% FBS (obtained from Invitrogen Corp.), the above mentioned recombinant VEGFR-2 baculovirus solution (4 ml) was added and incubated with shaking at 27° C. for 48 hours. The recombinant VEGFR-2 baculovirus-infected cell culture was centrifuged at 4° C. at 1000 rpm for 5 minutes, and the supernatant was removed. The precipitated infected cells were suspended in 80 ml of ice-cold PBS, the suspension was centrifuged at 4° C. at 1000 rpm for 5 minutes, and the supernatant was removed. The precipitated infected cells were suspended in 40 ml of ice-cold Lysis Buffer (50 mM Tris-HCl (pH 8.5), 5 mM 2-mercaptoethanol, 100 mM KCl, 1 mM PMSF, and 1% (v/v) NP-40). This suspension was centrifuged at 4° C. at 12,000 rpm for 30 min to obtain a supernatant.
This supernatant was added to a Ni-NTA agarose column (3 ml, obtained from Qiagen) which had been equilibrated with 30 ml of Buffer A (20 mM Tris-HCl (pH 8.5), 5 mM 2-mercaptoethanol, 500 mM KCl, 20 mM imidazole, and 10% (v/v) glycerol). This column was washed sequentially with 30 ml of Buffer A, 6 ml of Buffer B (20 mM Tris-HCl (pH 8.5), 5 mM 2-mercaptoethanol, 1M KCl, and 10% (v/v) glycerol), and 6 ml of Buffer A. Then, to this column, 6 ml of Buffer C (20 mM Tris-HCl (pH 8.5), 5 mM 2-mercaptoethanol, 100 mM KCl, 100 mM imidazole, and 10% (v/v) glycerol) was added to obtain an eluate. This eluate was poured into a dialysis membrane (obtained from Spectrum Laboratories) and dialyzed with 1 liter of dialysis buffer (20 mM Tris-HCl (pH 7.5), 10% (v/v) glycerol, 1 mM DTT, 0.1 mM Na3VO4, 0.1 mM EGTA) at 4° C. overnight and stored at −80° C. until use. After the dialysis, a part of the eluate was subjected to a SDS electrophoresis, and the recombinant protein (His 6-VEGFR-2, a cytoplasmic domain of VEGFR-2 fused with 6 histidine residues on its N-terminus) detected at about 100 kDa Mw in Coomassie Brilliant Blue staining was subjected to protein quantification using BSA (obtained from Sigma Co. Ltd.) as a standard.
In each well of a 96-well round bottom plate (obtained from NUNC, product number 163320), 10 μl of a solution for kinase reaction (200 mM Hepes (pH 7.4), 80 mM MgCl2, 16 mM MnCl2, 2 mM Na3VO4), 250 ng of biotin-conjugated poly (Glu 4: Tyr 1) (biotin-poly (GT) obtained from Nihon Schering K.K.) (6 μl of 1/15 diluted solution with distilled water), 15 ng of His6-VEGFR-2 (10 μl of a 1/240 diluted solution with a 0.4% BSA solution), and a test substance solution in dimethyl sulfoxide (4 μl of 1/100 dilution with 0.1% BSA) were added to make a total volume of 30 μl. To them, 10 μl of 4 μM ATP (obtained from Sigma Co. Ltd.) diluted with distilled water was added, and the resultant was incubated for 10 minutes at 30° C., followed by addition of 10 μl of 500 mM EDTA (pH 8.0) (obtained from Wako Pure Chemical Industries, Ltd.) to obtain a kinase reaction solution.
To detect tyrosine-phosphorylated biotin-poly (GT), the Homogenous Time-Resolved Fluorescence (HTRF) method was used (Analytical Biochemistry, 269, 94-104, 1999). […]
On the technique in general: Time-resolved FRET reads energy transfer from a long-lived donor to a nearby acceptor.

In experiment [2] the target is T2, KIT (Homo sapiens, UniProt P10721).
T2 construct: purchased Carna Biosciences Inc. 08-156
The experiment is described as follows: Inhibitory action on KIT (ELISA). It is filed as biochemical. As to conditions: recombinant human kinase. The protocol:
A test compound was dissolved in dimethyl sulfoxide to make a 10 mM solution, which was stored in a dark place at 4° C. until use.
Protein tyrosine kinases (recombinant human kinases) used in the study were the following products from Carna Biosciences Inc. (Kobe, Japan).
VEGFR-1 (FLT 1) (product number: 08-189) VEGFR-3 (FLT 4) (product number: 08-190) RON (product number: 08-152) RET (product number: 08-159) KIT (product number: 08-156)
Kinase activity was measured in a mobility shift assay (MSA) method (J. Biomolecular Screening, 11, 359-368, 2006) using QuickScout Screening Assist™ (Carna Biosciences Inc., commercial kit), and enzyme-linked immunoassay (ELISA).
10 μl of the test substance solution obtained by dissolving or suspending in the assay buffer (15 mM Tris, 0.01% Tween 20, 2 mM DTT, pH 7.5) (4× final concentration), or 10 μl of a solvent (4% dimethyl sulfoxide-assay buffer) was dispensed into a DELFIA Streptavidin-coated clear plate (PerkinElmer Inc., product number 4009-0010). Then, 10 μl of an ATP/substrate/metal solution of QuickScout Screening Assist™ ELISA was added. Additionally, 20 μl of the kinase solution diluted with the assay buffer was added to initiate a reaction. For a blank, only 20 μl of the assay buffer was added. The assay method was in accordance with the protocol of QuickScout Screening Assist™ ELISA. After the reaction, the absorbance at 450 nm in each well was measured using SpectraMax (Molecular Devices, California, U.S.A).
A general note: An ELISA detects its analyte on a solid surface through an enzyme-linked reagent.

Each structure is given as a SMILES string.

One may read the IC50 as the point on the concentration scale where inhibition reaches its midpoint.

T2 sequence (P10721 26-976): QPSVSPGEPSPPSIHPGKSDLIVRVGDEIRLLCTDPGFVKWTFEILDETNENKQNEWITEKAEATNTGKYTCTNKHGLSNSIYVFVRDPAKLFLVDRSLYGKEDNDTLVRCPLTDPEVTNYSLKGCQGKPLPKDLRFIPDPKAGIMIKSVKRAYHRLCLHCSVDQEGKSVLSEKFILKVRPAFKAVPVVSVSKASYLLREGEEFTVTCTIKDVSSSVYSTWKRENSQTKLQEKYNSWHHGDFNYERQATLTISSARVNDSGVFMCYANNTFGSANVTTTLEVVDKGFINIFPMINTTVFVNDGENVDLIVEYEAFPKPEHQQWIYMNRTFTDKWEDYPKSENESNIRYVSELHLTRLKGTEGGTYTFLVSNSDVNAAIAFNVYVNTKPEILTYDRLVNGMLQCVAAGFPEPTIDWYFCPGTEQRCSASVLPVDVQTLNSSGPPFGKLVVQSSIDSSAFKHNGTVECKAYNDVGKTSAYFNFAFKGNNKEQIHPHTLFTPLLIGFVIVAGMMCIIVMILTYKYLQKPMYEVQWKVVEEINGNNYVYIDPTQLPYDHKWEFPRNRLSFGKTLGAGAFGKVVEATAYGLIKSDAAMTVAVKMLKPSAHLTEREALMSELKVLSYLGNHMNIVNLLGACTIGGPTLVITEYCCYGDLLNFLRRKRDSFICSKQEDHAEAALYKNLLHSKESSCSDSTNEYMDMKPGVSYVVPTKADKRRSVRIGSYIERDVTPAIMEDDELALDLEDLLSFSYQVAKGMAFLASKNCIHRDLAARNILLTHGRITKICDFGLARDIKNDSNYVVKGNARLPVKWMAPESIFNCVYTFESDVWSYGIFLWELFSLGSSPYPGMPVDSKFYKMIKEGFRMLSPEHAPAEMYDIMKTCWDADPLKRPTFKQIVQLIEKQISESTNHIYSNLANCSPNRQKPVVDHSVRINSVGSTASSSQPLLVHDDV
T1 sequence (P35968 786-1356 limits assumed): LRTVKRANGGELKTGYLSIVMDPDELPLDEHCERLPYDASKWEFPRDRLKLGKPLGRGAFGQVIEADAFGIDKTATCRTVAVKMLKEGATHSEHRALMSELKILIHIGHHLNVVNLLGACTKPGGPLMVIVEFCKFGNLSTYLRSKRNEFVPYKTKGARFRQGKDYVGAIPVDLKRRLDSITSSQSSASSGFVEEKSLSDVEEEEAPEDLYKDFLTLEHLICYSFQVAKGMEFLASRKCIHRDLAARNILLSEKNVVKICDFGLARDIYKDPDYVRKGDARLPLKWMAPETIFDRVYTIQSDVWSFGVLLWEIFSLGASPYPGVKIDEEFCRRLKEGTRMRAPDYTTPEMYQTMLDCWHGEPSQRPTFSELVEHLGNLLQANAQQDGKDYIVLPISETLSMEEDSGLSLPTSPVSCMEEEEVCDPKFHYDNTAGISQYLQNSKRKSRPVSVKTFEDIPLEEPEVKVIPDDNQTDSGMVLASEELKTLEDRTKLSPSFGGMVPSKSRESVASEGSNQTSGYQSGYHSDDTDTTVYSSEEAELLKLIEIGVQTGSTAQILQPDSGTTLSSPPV

On to `O=C(Nc1cc(Oc2cc(F)c(NC(=O)C3(C(=O)Nc4ccc(F)cc4)CC3)cc2F)ccn1)N1CC(CO)C1` [N-(2,5-Difluoro-4-{[2-({[3-(hydroxymethyl)azetidin-1-yl]carbonyl}amino)pyridin-4-yl]oxy}phenyl)-N′-(4-fluorophenyl)cyclopropane-1,1-dicarboxamide], for which the IC50 in experiment [1] was 10 nM; in experiment [2], 140 nM.

On to `CN1CCC(N(C)C(=O)Nc2cc(Oc3cc(F)c(NC(=O)C4(C(=O)Nc5ccc(F)cc5)CC4)cc3F)ccn2)CC1` [N-(2,5-Difluoro-4-{[2-({[methyl(1-methylpiperidin-4-yl)amino]carbonyl}amino)pyridin-4-yl]oxy}phenyl)-N′-(4-fluorophenyl)cyclopropane-1,1-dicarboxamide], for which the values for the IC50 in experiment [1] and in experiment [2] were 95 nM and 560 nM, respectively.

Consider `O=C(Nc1cc(Oc2cc(F)c(NC(=O)C3(C(=O)Nc4ccc(F)cc4)CC3)cc2F)ccn1)N1CC(O)C1` [N-{2,5-Difluoro-4-[(2-{[(3-hydroxyazetidin-1-yl)carbonyl]amino}pyridin-4-yl)oxy]phenyl}-N′-(4-fluorophenyl)cyclopropane-1,1-dicarboxamide], for which the IC50 in experiment [1] stood at 9.5 nM; in experiment [2] it was 370 nM.

For the molecule `CN1CCN(C2CCN(C(=O)Nc3cc(Oc4cc(F)c(NC(=O)C5(C(=O)Nc6ccc(F)cc6)CC5)cc4F)ccn3)CC2)CC1` [N-(2,5-Difluoro-4-{[2-({[4-(4-methylpiperazin-1-yl)piperidin-1-yl]carbonyl}amino)pyridin-4-yl]oxy}phenyl)-N′-(4-fluorophenyl)cyclopropane-1,1-dicarboxamide], the half-maximal inhibitory concentration (IC50) in experiment [1] came to 100 nM; in experiment [2], 350 nM.

Regarding `O=C(Nc1cc(Oc2ccc(NC(=O)C3(C(=O)Nc4ccc(F)cc4)CC3)c(F)c2)ccn1)N1CCC1` [N-[4-({2-[(Azetidin-1-ylcarbonyl)amino]pyridin-4-yl}oxy)-2-fluorophenyl]-N′-(4-fluorophenyl)cyclopropane-1,1-dicarboxamide], the IC50 in experiment [1] is 59 nM; in experiment [2], 380 nM.

The values above are taken from US20090227556A1, “RECEPTOR TYROSINE KINASE INHIBITORS COMPRISING PYRIDINE AND PYRIMIDINE DERIVATIVES” (Eisai R&D Management Co., Ltd., priority 2008, published 2009).
